Results taken from ChEMBL document CHEMBL1146559, “Dihydrolindbladiones, three new naphthoquinone pigments from a myxomycete Lindbladia tubulina” (J Nat Prod, 2003).
Converted amounts (≈) assume the structure as drawn.

Key:
Type in all cases: functional, cell-based
[1] = system: P388; test: Cytotoxicity against vincristine-resistant mouse P388 cells
[2] = system: P388; test: Cytotoxicity against vincristine-resistant mouse P388 cells in presence of vincristine
[3] = system: P388; test: Cytotoxicity against vincristine-sensitive mouse P388 cells

Which results are given for `CCCC(=O)CCC1=C(O)C(=O)c2cc(OC)c(OC)c(O)c2C1=O`?
IC50 [1]: > 50 µg/mL; IC50 [2]: > 50 µg/mL; IC50 [3]: > 50 µg/mL

`CCCC(=O)CCC1=C(O)C(=O)c2cc(O)c(O)c(O)c2C1=O` was tested. Which IC50 [1] did it give?
The IC50 was 14 µg/mL (≈ 43.7 µM).

And the IC50 [2]?
The IC50 was 12.6 µg/mL.

And the IC50 [3]?
The IC50 was 12.1 µg/mL (≈ 37.8 µM).

Which IC50 [1] does the source give for `CCCC(=O)CCC1=C(O)C(=O)c2cc(O)c(OC)c(O)c2C1=O` here?
The IC50 was over 50 µg/mL.

What about the IC50 [2] of the same compound?
The IC50 was 13.8 µg/mL.

And the IC50 [3]?
The IC50 was over 50 µg/mL.
